Measurements: article PMC3653948, “PDZ Domain-Mediated Interactions of G Protein-Coupled Receptors with Postsynaptic Density Protein 95: Quantitative Characterization of Interactions” (PLoS ONE, 2013)
Where two headings read alike, the source gives them in different places. Peptide text beside a SMILES is read from it.

Legend:
Assay type in all cases: binding
PSD-95 PDZ1 = molecular target: T1, PSD-95 PDZ1 (Homo sapiens, UniProt P78352); assay: FP competition assay, PSD-95 PDZ1 (probe Cy5-KIF1Bα)
T1 construct: PSD-95 PDZ1 (aa 61–151); made in house; host or cells: E. coli One Shot BL21 Star (DE3)
Method: (§1) FP measurements were performed in black, flat bottom 384-well NBS microplates (Corning) on a Synergy H4 microplatereader (BioTek Instruments) equipped with a 620/40 nm excitation filter, a 680/30 nm emission filter, and a 660 nm dichroic mirror. Polarization values were corrected with blank samples and samples with fluorescent probe alone. At least 10 data points were measured for each curve, and each data point was measured in triplicate. […] All FP measurements were performed in a buffer containing 10 mM HEPES pH 7.4, 150 mM NaCl, and 1% BSA and incubated at least 15 min at room temperature before reading. The signal was stable for more than an hour, showing that the reaction was at equilibrium.
(§2) For the competition binding curves, probe was mixed with a constant concentration of PDZ protein corresponding to the K d and a twofold dilution series of unlabeled peptide in a total volume of 30 µl. The baseline was determined using a sample containing only probe. The IC50 was determined by fitting to a 1∶1 binding model: Y = Ymax − Ymax × X/(X+IC50). The K i was calculated from the IC50 and from the K d for the interaction between the PDZ protein and the probe as described previously [38].

PSD-95 PDZ3 = molecular target: T2, PSD-95 PDZ3 (Homo sapiens, UniProt P78352); assay: FP competition assay, PSD-95 PDZ3 (probe Cy5-CRIPT); details: read-out: K i PDZ3
T2 construct: made in house; host or cells: E. coli One Shot BL21 Star (DE3)
Method: We used a competition set-up, where a constant concentration of isolated PSD-95 PDZ domain and a labeled reference ligand was titrated with unlabeled peptides from the GPCR C-tail library, typically within a 1–512 µM concentration range, and the resulting curves were fitted to obtain the IC50, which was used to calculate the K i (Figure 1). Three Cy5-labeled peptides with well-documented interactions with PSD-95 were used as reference ligands for the competition assay: Cy5-KIF1Bα was used for PDZ1 [20], Cy5-GluN2B (formerly known as NR2B) was used for PDZ2 and PDZ1-2 [21], and Cy5-CRIPT was used for PDZ3 [22] (Table S1). Competition with unlabeled versions of the reference ligands was used to validate the FP assay by comparison with the literature (Table S2).
FP measurements were performed in black, flat bottom 384-well NBS microplates (Corning) on a Synergy H4 microplatereader (BioTek Instruments) equipped with a 620/40 nm excitation filter, a 680/30 nm emission filter, and a 660 nm dichroic mirror. Polarization values were corrected with blank samples and samples with fluorescent probe alone. At least 10 data points were measured for each curve, and each data point was measured in triplicate. 25 nM Cy5-labeled probe was used for each assay: Cy5-KIF1Bα for PDZ1, Cy5-GluN2B for PDZ2 and PDZ1-2, and Cy5-CRIPT for PDZ3. All FP measurements were performed in a buffer containing 10 mM HEPES pH 7.4, 150 mM NaCl, and 1% BSA and incubated at least 15 min at room temperature before reading. The signal was stable for more than an hour, showing that the reaction was at equilibrium.
Saturation binding curves were used to determine the functionality of the PDZ domains by comparison with literature values and to calculate K i values from competition curves. Saturation binding curves were performed by mixing probe with a twofold dilution series of PDZ protein in a total volume of 30 µl. The K d was determined by fitting to a 1∶1 binding model: Y = Ymax × X/(X+K d).
For the competition binding curves, probe was mixed with a constant concentration of PDZ protein corresponding to the K d and a twofold dilution series of unlabeled peptide in a total volume of 30 µl. The baseline was determined using a sample containing only probe. The IC50 was determined by fitting to a 1∶1 binding model: Y = Ymax − Ymax × X/(X+IC50). The K i was calculated from the IC50 and from the K d for the interaction between the PDZ protein and the probe as described previously.

PSD-95 PDZ2 = molecular target: T3, PSD-95 PDZ2 (Homo sapiens, UniProt P78352); assay: FP competition assay, PSD-95 PDZ2 (probe Cy5-GluN2B); details: read-out: K i PDZ2
T3 construct: PDZ2 (aa 155–249); made in house; host or cells: E. coli One Shot BL21 Star (DE3)
Method: as §1, §2

[1] = 25 nM Cy5-KIF1Bα, 10 mM HEPES pH 7.4, 150 mM NaCl, 1% BSA, room temperature, at least 15 min, Ki ± fitting error, read-out: K i PDZ1
[2] = receptors binding to PDZ1 but not to PDZ2, read-out: K i PDZ1

Row | SMILES | Ki (PSD-95 PDZ1; [1]) | Ki (PSD-95 PDZ3) | Ki (PSD-95 PDZ2) | Ki (PSD-95 PDZ1; [2])
1 | CC(C)C[C@H](NC(=O)[C@@H](NC(=O)[C@H](CO)NC(=O)[C@H](CO)NC(=O)[C@H](CO)NC(=O)[C@H](CCC(N)=O)NC(=O)[C@H](CCCCN)NC(=O)[C@H](Cc1ccc(O)cc1)NC(=O)[C@H](CC(=O)O)NC(=O)[C@H](CCCNC(=N)N)NC(=O)[C@H](CCCNC(=N)N)NC(=O)[C@H](CC(=O)O)NC(=O)[C@@H](N)CC(=O)O)[C@@H](C)O)C(=O)O [mGlu1(a)] (H-DDRRDYKQSSSTL-OH) | – | > 1000 µM | > 1000 µM | > 600 µM
2 | CC[C@H](C)[C@H](NC(=O)[C@@H](NC(=O)[C@H](CC(C)C)NC(=O)[C@H](CC(N)=O)NC(=O)[C@H](CC(N)=O)NC(=O)[C@H](Cc1ccc(O)cc1)NC(=O)[C@H](CO)NC(=O)[C@@H](NC(=O)[C@H](Cc1ccc(O)cc1)NC(=O)[C@H](CCCCN)NC(=O)[C@H](CCCNC(=N)N)NC(=O)[C@H](CC(=O)O)NC(=O)[C@@H](N)CC(=O)O)C(C)C)C(C)C)C(=O)O [mGlu7(a)] (H-DDRKYVSYNNLVI-OH) | 610 ± 51 µM | > 1000 µM | > 1000 µM | > 600 µM

Results, then the molecule that gave them:

Row | Ki (PSD-95 PDZ1; [1]) | Ki (PSD-95 PDZ3) | Ki (PSD-95 PDZ2) | Ki (PSD-95 PDZ1; [2]) | SMILES
3 | > 1000 µM | > 1000 µM | 420 ± 52 µM | – | CC(C)[C@H](NC(=O)[C@H](CCC(N)=O)NC(=O)[C@H](CCCNC(=N)N)NC(=O)[C@H](CC(=O)O)NC(=O)[C@H](CC(=O)O)NC(=O)[C@@H](N)Cc1ccc(O)cc1)C(=O)N1CCC[C@H]1C(=O)N[C@@H](Cc1ccccc1)C(=O)N[C@H](C(=O)N[C@@H](CCCCN)C(=O)N[C@H](C(=O)N[C@H](C(=O)N[C@H](C(=O)N[C@@H](Cc1ccccc1)C(=O)O)[C@@H](C)O)[C@@H](C)O)[C@@H](C)O)[C@@H](C)O [SSTR4 Mouse] (H-YDDRQVPFTKTTTF-OH)
4 | 270 ± 22 µM | > 1000 µM | 230 ± 14 µM | – | CC(C)[C@H](NC(=O)[C@H](CC(N)=O)NC(=O)[C@@H](NC(=O)[C@H](C)NC(=O)[C@H](CCC(=O)O)NC(=O)[C@@H](NC(=O)[C@H](Cc1ccccc1)NC(=O)[C@H](CO)NC(=O)[C@H](CC(=O)O)NC(=O)[C@H](CC(N)=O)NC(=O)[C@H](CCCNC(=N)N)NC(=O)[C@H](CC(=O)O)NC(=O)[C@H](CC(=O)O)NC(=O)[C@@H](N)Cc1ccc(O)cc1)[C@@H](C)O)[C@@H](C)O)C(=O)O [Y2] (H-YDDRNDSFTEATNV-OH)
5 | 430 ± 47 µM | 360 ± 82 µM | 120 ± 20 µM | – | CC(C)[C@H](NC(=O)[C@H](CCCCN)NC(=O)[C@H](CO)NC(=O)[C@H](CCC(=O)O)NC(=O)[C@H](CO)NC(=O)[C@H](C)NC(=O)[C@H](Cc1ccccc1)NC(=O)CNC(=O)[C@@H]1CCCN1C(=O)[C@H](CCCNC(=N)N)NC(=O)[C@H](CCCNC(=N)N)NC(=O)[C@H](CC(=O)O)NC(=O)[C@H](CC(=O)O)NC(=O)[C@@H](N)Cc1ccc(O)cc1)C(=O)O [β1AR] (H-YDDRRPGFASESKV-OH)
